This passage reports IC50 results from patent US8114885B2, “Chemical compounds” (GlaxoSmithKline LLC, priority 2000, dated 2012).

The test system of this test is HUVEC. In words: Human Umbilical Vein Endothelial Cell (HUVEC) proliferation assay (BrdU incorporation). It is filed as cell-based. The settings on record: VEGF-stimulated HUVEC, 72 hrs, read-out: Inhibition of HUVEC proliferation IC50. As for the experimental part: Human Umbilical Vein Endothelial Cell (HUVEC) Proliferation Assay (BrdU Incorporation) Materials
HUVEC cells and EGM-MV (Endothelial cell growth medium—microvascular) were purchased from Clonetics (San Diego, Calif.). VEGF and bFGF were purchased from R&D Systems (Minneapolis, Minn.). Anti-BrdU antibody was obtained from Chemicon International (Temecula, Calif.).
HUVECs were routinely maintained in EGM-MV medium and were used within passage 7. HUVECs were plated at a density of 2500 cells/well in M199 medium containing 5% FBS (Hyclone) in type I collagen coated plate (Becton Dickinson). The plate was incubated at 37° C. overnight. The medium was removed by aspiration, and test compounds were added to each well in a volume of 0.1 ml/well in serum-free M199 medium. Compound concentrations ranged from 1.5 nM to 30 micromolar. The plate was incubated for 30 min at 37° C. Another 0.1 ml of serum-free M199 medium containing BSA and VEGF (or bFGF) was added to give a final concentration of 0.1% BSA and 10 ng/ml VEGF (0.3 ng/ml bFGF). The plate was incubated at 37° C. for 72 hrs. BrdU was added to each well after the first 48 hrs to give a concentration of 10 micromolar. The calorimetric ELISA assay was performed according to manufacturer's (Roche Molecular Sciences) instructions, with detection by absorbance reading at 450 nm. Results were plotted as concentration of test compound vs. absorbance to give an IC50 value for inhibition of BrdU incorporation.
For orientation: Incorporation of labelled thymidine or its analogues reports DNA synthesis.

Structures can show the parent of a compound that is named as a salt.

Consider `Cc1n[nH]c2cc(N(C)c3ccnc(Nc4cccc(CS(C)(=O)=O)c4)n3)ccc12` [Example 23, N^4-methyl-N^4-(3-methyl-1H-indazol-6-yl)-N^2-{3-[(methylsulfonyl)methyl]phenyl}-2,4-pyrimidinediamine], for which the IC50 lay in the range of 1 to 200 nM.
Regarding `Cc1ccc(S(N)(=O)=O)cc1Nc1nccc(N(C)c2ccc3c(C)n[nH]c3c2)n1` [Example 65, 4-methyl-3-({4-[methyl(3-methyl-1H-indazol-6-yl)amino]-2-pyrimidinyl}amino)benzenesulfonamide], the IC50 lay within 1 to 200 nM.
Consider `Cc1n[nH]c2cc(N(C)c3ccnc(Nc4cccc(S(N)(=O)=O)c4)n3)ccc12` [Example 21, 3-({4-[methyl(3-methyl-1H-indazol-6-yl)amino]-2-pyrimidinyl}amino)benzenesulfonamide hydrochloride], for which the IC50 was 1 to 200 nM.
For the molecule `COc1cc(S(N)(=O)=O)ccc1Nc1nccc(N(C)c2ccc3c(C)n[nH]c3c2)n1` [Example 49, 3-methoxy-4-({4-[methyl(3-methyl-1H-indazol-6-yl)amino]-2-pyrimidinyl}amino)benzenesulfonamide], the IC50 fell in the range of 1 to 200 nM.
Take `CCS(=O)(=O)c1ccc(OC)c(Nc2ncc(F)c(N(C)c3ccc4c(C)n[nH]c4c3)n2)c1` [Example 1, N^2-[5-(ethylsulfonyl)-2-methoxyphenyl]-5-fluoro-N^4-methyl-N^4-(3-methyl-1H-indazol-6-yl)-2,4-pyrimidinediamine]: the IC50 was in the range of 201 to 500 nM.
The value for `Cc1n[nH]c2cc(N(C)c3ccnc(Nc4cccc([S+](C)[O-])c4)n3)ccc12` (stereo not shown) [Example 66, N^4-methyl-N^4-(3-methyl-1H-indazol-6-yl)-N^2-[3-(methylsulfinyl)phenyl]-2,4-pyrimidinediamine] was 1 to 200 nM; that for `Cc1n[nH]c2cc(N(C)c3ccnc(Nc4ccc(S(N)(=O)=O)c(Cl)c4)n3)ccc12` [Example 61, 2-chloro-4-({4-[methyl(3-methyl-1H-indazol-6-yl)amino]-2-pyrimidinyl}amino)benzenesulfonamide] was 201 to 500 nM.
Turning to `Cc1ccc(Nc2ncc(F)c(N(C)c3ccc4c(C)n[nH]c4c3)n2)cc1NS(C)(=O)=O` [Example 6, N-[5-({5-fluoro-4-[methyl(3-methyl-1H-indazol-6-yl)amino]-2-pyrimidinyl}amino)-2-methylphenyl]methanesulfonamide], the IC50 lay within 201 to 500 nM.
The value for `CCS(=O)(=O)c1ccc(OC)c(Nc2nccc(N(c3ccc4c(C)n[nH]c4c3)C(C)C)n2)c1` [Example 36, N^2-[5-(ethylsulfonyl)-2-methoxyphenyl]-N^4-isopropyl-N^4-(3-methyl-1H-indazol-6-yl)-2,4-pyrimidinediamine] was more than 1000 nM; that for `Cc1ccc(Nc2ncnc(N(C)c3ccc4c(C)n[nH]c4c3)n2)cc1NS(C)(=O)=O` [Example 18, N-[2-methyl-5-({4-[methyl(3-methyl-1H-indazol-6-yl)amino]-1,3,5-triazin-2-yl}amino)phenyl]methanesulfonamide] was 501 to 1000 nM.
For the molecule `Cc1n[nH]c2cc(N(C)c3nc(Nc4ccc(S(N)(=O)=O)cc4)ncc3F)ccc12` [Example 9, 4-({5-fluoro-4-[methyl(3-methyl-1H-indazol-6-yl)amino]-2-pyrimidinyl}amino)benzenesulfonamide], the IC50 lay in the range of 201 to 500 nM.
Turning to `CN(c1ccc2cn[nH]c2c1)c1ccnc(Nc2cccc(CS(C)(=O)=O)c2)n1` [Example 37, N^4-(1H-indazol-6-yl)-N^4-methyl-N^2-{3-[(methylsulfonyl)methyl]phenyl}-2,4-pyrimidinediamine], the IC50 was 201 to 500 nM.
`Cc1c2ccc(N(C)c3ccnc(Nc4cccc(S(N)(=O)=O)c4)n3)cc2nn1Cc1cccc(Cl)c1` [Example 77, 3-({4-[[2-(3-chlorobenzyl)-3-methyl-2H-indazol-6-yl](methyl)amino]pyrimidin-2-yl}amino)benzenesulfonamide]: the IC50 was in the range of 1 to 200 nM.
For the molecule `Cc1nn(C)c2cc(N(C)c3ccnc(Nc4cccc(CS(C)(=O)=O)c4)n3)ccc12` [Example 38, N^4-(1,3-dimethyl-1H-indazol-6-yl)-N^4-methyl-N^2-{3-[(methylsulfonyl)methyl]phenyl}-2,4-pyrimidinediamine], the IC50 fell in the range of 201 to 500 nM.
Under `COc1ccc(S(N)(=O)=O)cc1Nc1nccc(Nc2ccc3c(C)n[nH]c3c2)n1` [Example 34, 4-methoxy-3-({4-[(3-methyl-1H-indazol-6-yl)amino]-2-pyrimidinyl}amino)benzenesulfonamide] stands 201 to 500 nM; under `Cc1n[nH]c2cc(N(C)c3ccnc(Nc4ccc(CS(=O)(=O)C(C)C)cc4)n3)ccc12` [Example 29, N^2-{4-[(isopropylsulfonyl)methyl]phenyl}-N^4-methyl-N^4-(3-methyl-1H-indazol-6-yl)-2,4-pyrimidinediamine], 1 to 200 nM.
The value for `Cc1c2ccc(N(C)c3ncnc(Nc4cccc(S(N)(=O)=O)c4)n3)cc2nn1C` [Example 78, 3-({4-[(2,3-dimethyl-2H-indazol-6-yl)(methyl)amino]-1,3,5-triazin-2-yl}amino)benzenesulfonamide] was 1 to 200 nM; that for `COc1ccc(S(=O)(=O)NC(C)C)cc1Nc1ncc(F)c(N(C)c2ccc3c(C)n[nH]c3c2)n1` [Example 4, 3-({5-fluoro-4-[methyl(3-methyl-1H-indazol-6-yl)amino]-2-pyrimidinyl}amino)-N-isopropyl-4-methoxybenzenesulfonamide] was 201 to 500 nM.
In the case of `CNS(=O)(=O)Cc1ccc(Nc2ncc(F)c(N(C)c3ccc4c(C)n[nH]c4c3)n2)cc1` [Example 11, [4-({5-fluoro-4-[methyl(3-methyl-1H-indazol-6-yl)amino]-2-pyrimidinyl}amino)phenyl]-N-methylmethanesulfonamide], the IC50 lay in the range of 201 to 500 nM.
On to `CNS(=O)(=O)c1ccc(OC)c(Nc2nccc(N(C)c3ccc4c(C)n[nH]c4c3)n2)c1` [Example 47, 4-methoxy-N-methyl-3-({4-[methyl(3-methyl-1H-indazol-6-yl)amino]-2-pyrimidinyl}amino)benzenesulfonamide], for which the IC50 was 201 to 500 nM.
For the molecule `C#CCN(c1ccc2c(C)n[nH]c2c1)c1ccnc(Nc2cccc(CS(C)(=O)=O)c2)n1` [Example 50], the IC50 was 201 to 500 nM.
On to `Cc1n[nH]c2cc(N(C)c3ccnc(Nc4cccc(C(N)=O)c4)n3)ccc12` [Example 56, 3-({4-[methyl(3-methyl-1H-indazol-6-yl)amino]-2-pyrimidinyl}amino)benzamide], for which the IC50 is 1 to 200 nM.
As to `Cc1c2ccc(N(C)c3ccnc(Nc4ccc(CCS(N)(=O)=O)cc4)n3)cc2nn1C` [Example 71, 2-[4-({4-[(2,3-dimethyl-2H-indazol-6-yl)(methyl)amino]pyrimidin-2-yl}amino)phenyl]ethanesulfonamide], the IC50 is 1 to 200 nM.
`Cc1n[nH]c2cc(N(C)c3ccnc(Nc4cccc(CNS(C)(=O)=O)c4)n3)ccc12` [Example 59, N-[3-({4-[methyl (3-methyl-1H-indazol-6-yl)amino]-2-pyrimidinyl}amino)benzyl]methanesulfonamide]: the IC50 was 1 to 200 nM.
For `COc1ccc(S(=O)(=O)Cc2cc(C)on2)cc1Nc1nccc(Nc2ccc3c(C)n[nH]c3c2)n1` [Example 33, N^2-(2-methoxy-5-{[(5-methyl-3-isoxazolyl)methyl]sulfonyl}phenyl)-N^4-(3-methyl-1H-indazol-6-yl)-2,4-pyrimidinediamine], the IC50 is more than 1000 nM.
